Data published in paper PMC9151520 (Archives of Toxicology, 2022).
Where two headings read alike, the source gives them in different places.

What was measured:
[1] = test system: p53 signaling (p53RE-bla HCT-116 cells)
[2] = test system: p53 signaling (p53RE-bla HCT-116 cells); experiment: cells; conditions: Homo sapiens
[3] = rat
[4] = test system: p53RE-bla HCT-116 cells
[5] = test system: p53 signaling (p53RE-bla HCT-116 cells); experiment: cells; conditions: Homo sapiens, HCT-116, read-out: p53 activation EC50, HLM
[6] = in vitro; conditions: male, Sprague Dawley, rat, microsomes, pH 7.4
[7] = test system: p53 signaling (p53RE-bla HCT-116 cells); experiment: cells; format: cell-based; conditions: Homo sapiens; for EC50: HCT-116
[8] = test system: p53 signaling (p53RE-bla HCT-116 cells); experiment: cells; format: cell-based
[9] = test system: p53 signaling (p53RE-bla HCT-116 cells); experiment: cells; format: cell-based; remark: listed apart in the source
[10] = test system: p53 signaling (p53RE-bla HCT-116 cells); remark: listed apart in the source

Structure (SMILES) | EC50 ([2]; HCT-116) [nM] | Emax ([2]; HCT-116, read-out: efficacy) [%] | Depletion after 16 h of incubation with cells [3] [%] | Viability EC50, HLM [4] | Viability EC50, No MS [4] | Viability EC50, RLM [4] | Viability Efficacy, HLM [4] | Viability Efficacy, No MS [4] | Viability Efficacy, RLM [4] | EC50 [5] [nM] | half-life [6] [min] | EC50 [7] [nM] | EC50 ([8]; Homo sapiens, HCT-116, 0.5 h) [nM] | p53 activation EC50, No MS [9] | p53 activation Efficacy, No MS [9] | p53 activation EC50, HLM [10] | p53 activation efficacy [1] | EC50 ([1]; read-out: p53 activation EC50) [nM] | Viability EC50 [4] | Viability efficacy [4] | also measured
CCOC(=O)c1cn2nc(OP(=S)(OCC)OCC)cc2nc1C [Pyrazophos] | 700 | 32.7 | 88.65 ± 0.14 | inactive | inactive | inactive | inactive | inactive | inactive | 3670 | 2.29 ± 0.71 | 790 | 41000 | inactive | inactive | inactive |  |  |  |  | EC50 ([1]; read-out: p53 activation EC50, RLM): 877 nM; EC50 ([2]; HCT-116, read-out: p53 activation EC50, RLM): 765 nM
Cc1ccccc1OP(=O)(Oc1ccccc1C)Oc1ccccc1C [Tri-o-cresyl phosphate] | 5320 | 59.6 | 93.36 ± 0.84 | inactive | inactive | inactive | inactive | inactive | inactive | 1120 | 1.17 ± 0.08 | 3140 | 15800 | inactive | inactive | inactive |  |  |  |  | 
CCOP(=S)(OCC)Oc1cc(-c2ccccc2)on1 [Isoxathion] | 8620 | 46 | 94.65 ± 0.45 | inactive | inactive | inactive | inactive | inactive | inactive | 4450 | 2.77 ± 0.25 | 9770 | 27500 | inactive | inactive | inactive |  |  |  |  | 
CCOP(=S)(Oc1cnc(C(C)(C)C)nc1)OC(C)C (stereo not drawn) [Tebupirimfos] | 1230 | 43.4 | 94.85 ± 0.13 |  |  |  |  |  |  |  | 3.59 ± 0.08 | 1320 | 2170 |  |  |  | 42.005 | 1630 | inactive | inactive | p53 activation EC50 [9]: inactive; p53 activation efficacy [9]: inactive; p53 activation EC50 [10]: inactive
CCN(CC)C(=O)SCc1ccc(Cl)cc1 [Thiobencarb] | 5520 | 71.8 | 98.6 ± 0.04 |  |  |  |  |  |  |  | 1.48 ± 0.54 | 1840 | 1680 |  |  |  | 51.3593 | 1630 | inactive | inactive | p53 activation EC50 [9]: inactive; p53 activation efficacy [9]: inactive; p53 activation EC50 [10]: inactive
CCSC(=O)N1CCCCCC1 [Molinate] | 350 | 40.5 | 97.58 ± 0.19 |  |  |  |  |  |  |  | 12 ± 0.18 | 300 |  |  |  |  |  |  |  |  | EC50 ([2]; HCT-116, read-out: p53 activation EC50, cherry pick confirmation): 355 nM; EC50 ([2]; HCT-116, read-out: p53 activation EC50, primary screening): 1850 nM; Emax ([2]; HCT-116, read-out: p53 activation efficacy, cherry pick confirmation): 39.9%; Emax ([2]; HCT-116, read-out: p53 activation efficacy, primary screening): 45.3%; Viability EC50, cherry pick confirmation [4]: inactive; Viability EC50, primary screening [4]: inactive; Viability efficacy, cherry pick confirmation [4]: inactive; Viability efficacy, primary screening [4]: inactive; Emax ([7]; HCT-116, read-out: efficacy): 44.1%; EC50 [8]: Inactive; p53 activation EC50, cherry pick confirmation [9]: inactive; p53 activation EC50, primary screening [9]: inactive; p53 activation efficacy, cherry pick confirmation [9]: inactive; p53 activation efficacy, primary screening [9]: inactive; p53 activation EC50, cherry pick confirmation [10]: inactive; p53 activation EC50, primary screening [10]: inactive; p53 activation efficacy, cherry pick confirmation [10]: inactive; p53 activation efficacy, primary screening [10]: inactive
